Results taken from patent US20090274687A1, “ATTENUATION OF HYPOXIA INDUCED CARDIOVASCULAR DISORDERS” (University Of Miami, priority 2008, published 2009).
“Also recorded” adds a separate entry of the source.

Key:
[1] = tested on: FVB/NJ neonatal mice exposed to normobaric hypoxia (hypoxia-induced pulmonary hypertension); test: Prevention: neonatal mice exposed to 1 wk hypoxia, daily intraperitoneal treatment postnatal day 1-7; format: in vivo
Description: Animal Care and Treatment: Sixty Eight FVB/NJ neonatal mice exposed to normobaric hypoxia (10% O2) or normoxia (20.9% O2) for one week were randomly assigned to receive daily intraperitoneal injections of normal saline (PL; n=19), or AMD3100 (7.5 mg/kg; n=10) or anti-SDF-1 antibody ([…]; n=19) for seven days, from postnatal day 1-7.

[2] = tested on: CXCR4 receptor; conditions: cited from earlier work

## c1cc(CN2CCCNCCNCCCNCC2)ccc1CN1CCCNCCNCCCNCC1 [AMD3100, 1,1′-[1,4-phenylenebis(methylene)]bis-1,4,8,11-tetraazacyclotetradecane]
[1]; 1 wk hypoxia, 20-50 μm diameter arterioles, vs Hyp PL, FIG. 5D
  vascular remodeling (medial wall thickness), morphometric analysis of pulmonary arterioles: marked decrease; also recorded: markedly attenuated
[1]; 1 wk hypoxia, right ventricle, vs Hyp PL, FIG. 4C
  RV c-kit expression: significantly decreased
[1]; 1 wk hypoxia, right ventricle, vs Hyp PL, FIG. 4D
  RV Sca-1 expression: significantly decreased
[1]; 1 wk hypoxia, right ventricle, vs Hyp PL, FIG. 4E
  RV Isl-1 expression: significantly decreased
[1]; 1 wk hypoxia, to baseline or near baseline values, FIGS. 4A-4E
  protein expression of stem cell markers (c-kit, Sca-1) in lungs and right ventricles: significantly decreased
[1]; 1 wk hypoxia, vs Hyp PL, to near baseline values, FIG. 4A
  lung c-kit expression: significantly decreased
[1]; 1 wk hypoxia, vs Hyp PL, to near baseline values, FIG. 4B
  lung Sca-1 expression: significantly decreased
[1]; 1 wk hypoxia, vs placebo, FIG. 5A
  RVSP: close to baseline values; also recorded: significantly attenuated
[1]; 1 wk hypoxia, vs placebo, FIG. 5B
  RV Hypertrophy (RV/LV+S): close to baseline values; also recorded: significantly attenuated
[1]; 1 wk hypoxia, vs placebo, FIG. 5C
  number of muscularized pulmonary arterioles (α-smooth muscle actin staining): decreased
[1]; 1 wk hypoxia, vs placebo, FIG. 5E
  percentage of non-muscularized pulmonary arterioles: significantly increased
[1]; 1 wk hypoxia, vs placebo, FIG. 5F
  mean linear intercept (MLI), lung alveolarization: significantly decreased
[1]; hypoxic mouse pups vs Hyp PL, FIGS. 6A-6B
  number of PCNA+ cells in the pulmonary vasculature (cell proliferation): significantly attenuated
[1]; hypoxic mouse pups vs Hyp PL, FIGS. 6D-6E
  number of TUNEL+ cells in the pulmonary vasculature (apoptosis): significantly attenuated
[1]; treated mouse pups vs placebo, FIG. 6C
  phosphorylated-Akt expression in lungs: marked decrease
[2]; after introduction of Glu VII:06 and removal of Lys VII:02
  affinity relative to its affinity in CXCR4: ≤ 10 fold
[2]; introduction of a Glu at position VII:06 and removal of a neutralizing Lys residue at position VII:02
  increase in affinity of AMD3100: 1000 fold
